Assays:
[1] = test system: thrombin generation in pooled normal plasma; experiment: Calibrated Automated Thrombogram thrombin generation assay in pooled normal plasma; type: biochemical, human; settings: for procoagulant effect in normal plasma: no anticoagulant, cyclodextrin 100 μM unless otherwise indicated, 1 pM TF; for procoagulant activity (overview): pooled normal plasma with and without the addition of anticoagulants; for lag time / peak thrombin: normal plasma, versus absence of cyclodextrin
Method: (§1) FIGS. 3-8, 12, 14-19 and 22-27: Pooled normal plasma was spiked with cyclodextrins (100 μM, unless otherwise indicated) and anticoagulants. The concentrations of the anticoagulants were 100 ng/ml for dabigatran (A), 100 ng/ml for rivaroxaban (B), 60 ng/ml for apixaban (C), 60 ng/ml for edoxaban (D). The plasmas were subjected to thrombin generation analysis as described in the Materials and Methods section with 1 pM tissue factor (TF) as initiator of coagulation.
(§2) The Calibrated Automated Thrombogram® assays the generation of thrombin in clotting plasma using a microtiter plate reading fluorometer (Fluoroskan Ascent, ThermoLab systems, Helsinki, Finland) and Thrombinoscope® software (Thrombinoscope BV, Maastricht, The Netherlands). The assay was carried out as described by Hemker et al. (Pathofysiol. IIaemost. Thromb. 2003, 33, 4-15), and the Thrombinoscope® manual. Coagulation was triggered by recalcification in the presence of 1 or 5 pM recombinant human tissue factor (Innovin®, Siemens, Marburg, Germany), 4 μM phospholipids, and 417 μM fluorogenic substrate Z-Gly-Gly-Arg-AMC (Bachem, Bubendorf, Switzerland). Fluorescence was monitored using the Fluoroskan Ascent fluorometer (ThermoLabsystems, Helsinki, Finland), and the lag time, peak thrombin, velocity index and area under the curve (ETP) were calculated using the Thrombinoscope® software (Thrombinoscope BV).
Thrombin generation analyses were performed in pooled normal plasma with and without the addition of anticoagulants.

[2] = test system: thrombin generation in pooled normal plasma spiked with anticoagulants; experiment: Thrombin generation assay in pooled normal plasma spiked with anticoagulants; type: biochemical, human; settings: for effect on the anticoagulant effect of apixaban: apixaban 60 ng/ml; for effect on the anticoagulant effect of apixaban / effect on the anticoagulant effect of dabigatran / effect on the anticoagulant effect of edoxaban / effect on the anticoagulant effect of rivaroxaban: cyclodextrin 100 μM, 1 pM TF; for effect on the anticoagulant effect of dabigatran: dabigatran 100 ng/ml; for effect on the anticoagulant effect of edoxaban: edoxaban 60 ng/ml; for effect on the anticoagulant effect of rivaroxaban: rivaroxaban 100 ng/ml
Method: as §1
FIG. 9: Pooled normal plasma was spiked with OKL-1111 (100 μM, unless otherwise indicated (A)) and anticoagulants (B-E). The concentrations of the anticoagulants were 100 ng/ml for dabigatran (B), 100 ng/ml for rivaroxaban (C), 60 ng/ml for apixaban (D), 60 ng/ml for edoxaban (E). The plasmas were subjected to thrombin generation analysis as described in the Materials and Methods section with 1 pM tissue factor (TF) as initiator of coagulation.
FIG. 10: Pooled normal plasma was spiked with OKL-1111 (100 μM) and anticoagulants (A-F). The concentrations of the anticoagulants were 2 μg/ml for fondaparinux (A), 0.4 U/ml for nadroparin (B), 0.1 U/ml for tinzaparin (C), 0.03 U/ml for unfractionated heparin (UFH) (D), 0.5 U/ml for hirudin (E) and 10 μg/ml for bivalirudin (F). The plasmas were subjected to thrombin generation analysis as described in the Materials and Methods section with 1 pM tissue factor (TF) as initiator of coagulation.
as §2

SMILES | procoagulant effect in normal plasma [1] | procoagulant activity (overview) [1] | procoagulant effect in plasma containing anticoagulants (not specified / NOACs) [2] | effect on the anticoagulant effect of apixaban [2] | effect on the anticoagulant effect of dabigatran [2] | effect on the anticoagulant effect of edoxaban [2] | effect on the anticoagulant effect of rivaroxaban [2] | lag time [1] | peak thrombin [1]
O=C(O)CCSCC1OC2OC3C(CO)OC(OC4C(CO)OC(OC5C(CO)OC(OC6C(CO)OC(OC7C(CO)OC(OC8C(CO)OC(OC9C(CO)OC(OC1C(O)C2O)C(O)C9O)C(O)C8O)C(O)C7O)C(O)C6O)C(O)C5O)C(O)C4O)C(O)C3O (stereo not shown) [OKL-1102, reference compound] | did not show procoagulant activity | No | did not show procoagulant activity | – | – | – | – | – | –
O=C(O)CCCCSCC1OC2OC3C(CSCCCCC(=O)O)OC(OC4C(CSCCCCC(=O)O)OC(OC5C(CSCCCCC(=O)O)OC(OC6C(CSCCCCC(=O)O)OC(OC7C(CSCCCCC(=O)O)OC(OC8C(CSCCCCC(=O)O)OC(OC1C(O)C2O)C(O)C8O)C(O)C7O)C(O)C6O)C(O)C5O)C(O)C4O)C(O)C3O (stereo not shown) [OKL-1178] | procoagulant activity | – | – | – | – | – | – | – | –
O=C(O)CCCCCSCC1OC2OC3C(CO)OC(OC4C(CO)OC(OC5C(CO)OC(OC6C(CO)OC(OC7C(CO)OC(OC8C(CO)OC(OC1C(O)C2O)C(O)C8O)C(O)C7O)C(O)C6O)C(O)C5O)C(O)C4O)C(O)C3O (stereo not shown) [OKL-1108] | substantial procoagulant effect | – | – | antagonized | antagonized | antagonized | antagonized | – | –
OCCCSCC1OC2OC3C(CSCCCO)OC(OC4C(CSCCCO)OC(OC5C(CSCCCO)OC(OC6C(CSCCCO)OC(OC7C(CSCCCO)OC(OC8C(CSCCCO)OC(OC9C(CSCCCO)OC(OC1C(O)C2O)C(O)C9O)C(O)C8O)C(O)C7O)C(O)C6O)C(O)C5O)C(O)C4O)C(O)C3O (stereo not shown) [OKL-1146] | very strong procoagulant effects | – | – | restoration of thrombin generation to levels far above that of non-anticoagulated plasma | restoration of thrombin generation to levels far above that of non-anticoagulated plasma | restoration of thrombin generation to levels far above that of non-anticoagulated plasma | restoration of thrombin generation to levels far above that of non-anticoagulated plasma | considerably shorter | largely increased
O=C(O)CCCSCC1OC2OC3C(CSCCCC(=O)O)OC(OC4C(CSCCCC(=O)O)OC(OC5C(CSCCCC(=O)O)OC(OC6C(CSCCCC(=O)O)OC(OC7C(CSCCCC(=O)O)OC(OC8C(CSCCCC(=O)O)OC(OC9C(CSCCCC(=O)O)OC(OC1C(O)C2O)C(O)C9O)C(O)C8O)C(O)C7O)C(O)C6O)C(O)C5O)C(O)C4O)C(O)C3O (stereo not shown) [OKL-1107] | strong procoagulant effects | – | – | completely restored or even higher than in the non-anticoagulated plasma | completely restored or even higher than in the non-anticoagulated plasma | completely restored or even higher than in the non-anticoagulated plasma | completely restored or even higher than in the non-anticoagulated plasma | considerably shorter | largely increased
O=C(O)CCCCCSCC1OC2OC3C(CSCCCCCC(=O)O)OC(OC4C(CSCCCCCC(=O)O)OC(OC5C(CSCCCCCC(=O)O)OC(OC6C(CSCCCCCC(=O)O)OC(OC7C(CSCCCCCC(=O)O)OC(OC8C(CSCCCCCC(=O)O)OC(OC1C(O)C2O)C(O)C8O)C(O)C7O)C(O)C6O)C(O)C5O)C(O)C4O)C(O)C3O (stereo not shown) [OKL-1109] | small effects | – | – | marginal or no effects | marginal or no effects | marginal or no effects | marginal or no effects | – | –
O=C(O)CCSCC1OC2OC3C(CSCCC(=O)O)OC(OC4C(CSCCC(=O)O)OC(OC5C(CSCCC(=O)O)OC(OC6C(CSCCC(=O)O)OC(OC7C(CSCCC(=O)O)OC(OC8C(CSCCC(=O)O)OC(OC1C(O)C2O)C(O)C8O)C(O)C7O)C(O)C6O)C(O)C5O)C(O)C4O)C(O)C3O (stereo not shown) [OKL-1101, reference compound] | did not show procoagulant activity | No | did not show procoagulant activity | – | – | – | – | – | –
O=C(O)CCSCC1OC2OC3C(CSCCC(=O)O)OC(OC4C(CSCCC(=O)O)OC(OC5C(CSCCC(=O)O)OC(OC6C(CSCCC(=O)O)OC(OC7C(CSCCC(=O)O)OC(OC8C(CSCCC(=O)O)OC(OC9C(CSCCC(=O)O)OC(OC1C(O)C2O)C(O)C9O)C(O)C8O)C(O)C7O)C(O)C6O)C(O)C5O)C(O)C4O)C(O)C3O (stereo not shown) [OKL-1170, reference compound] | did not show procoagulant activity | No | did not show procoagulant activity | – | – | – | – | – | –
O=C(O)CCCCCSCC1OC2OC3C(CO)OC(OC4C(CO)OC(OC5C(CO)OC(OC6C(CO)OC(OC7C(CO)OC(OC8C(CO)OC(OC9C(CO)OC(OC1C(O)C2O)C(O)C9O)C(O)C8O)C(O)C7O)C(O)C6O)C(O)C5O)C(O)C4O)C(O)C3O (stereo not shown) [OKL-1110] | very potent procoagulant effect | – | – | fully counteracted | strongly antagonized | fully counteracted | fully counteracted | – | –
O=C(O)CCCCCCSCC1OC2OC3C(CO)OC(OC4C(CO)OC(OC5C(CO)OC(OC6C(CO)OC(OC7C(CO)OC(OC8C(CO)OC(OC9C(CO)OC(OC1C(O)C2O)C(O)C9O)C(O)C8O)C(O)C7O)C(O)C6O)C(O)C5O)C(O)C4O)C(O)C3O (stereo not shown) [OKL-1190] | procoagulant effect | – | – | antagonized | antagonized | antagonized | antagonized | – | –
O=C(O)CCSCC1OC2OC3C(CO)OC(OC4C(CO)OC(OC5C(CO)OC(OC6C(CO)OC(OC7C(CO)OC(OC8C(CO)OC(OC1C(O)C2O)C(O)C8O)C(O)C7O)C(O)C6O)C(O)C5O)C(O)C4O)C(O)C3O (stereo not shown) [OKL-1100, reference compound] | did not show procoagulant activity | No | did not show procoagulant activity | – | – | – | – | – | –
O=C(O)CCCSCC1OC2OC3C(CO)OC(OC4C(CO)OC(OC5C(CO)OC(OC6C(CO)OC(OC7C(CO)OC(OC8C(CO)OC(OC9C(CO)OC(OC1C(O)C2O)C(O)C9O)C(O)C8O)C(O)C7O)C(O)C6O)C(O)C5O)C(O)C4O)C(O)C3O (stereo not shown) [OKL-1106] | procoagulant effect | – | – | less pronounced | significantly antagonized | less pronounced | significantly antagonized | – | –
O=C(O)CCCCCCSCC1OC2OC3C(CSCCCCCCC(=O)O)OC(OC4C(CSCCCCCCC(=O)O)OC(OC5C(CSCCCCCCC(=O)O)OC(OC6C(CSCCCCCCC(=O)O)OC(OC7C(CSCCCCCCC(=O)O)OC(OC8C(CSCCCCCCC(=O)O)OC(OC1C(O)C2O)C(O)C8O)C(O)C7O)C(O)C6O)C(O)C5O)C(O)C4O)C(O)C3O (stereo not shown) [OKL-1179] | procoagulant activity | – | – | – | – | – | – | – | –
O=C(O)CCCSCC1OC2OC3C(CSCCCC(=O)O)OC(OC4C(CSCCCC(=O)O)OC(OC5C(CSCCCC(=O)O)OC(OC6C(CSCCCC(=O)O)OC(OC7C(CSCCCC(=O)O)OC(OC8C(CSCCCC(=O)O)OC(OC1C(O)C2O)C(O)C8O)C(O)C7O)C(O)C6O)C(O)C5O)C(O)C4O)C(O)C3O (stereo not shown) [OKL-1105] | significant procoagulant effect | – | – | procoagulant effects were observed | procoagulant effects were observed | procoagulant effects were observed | procoagulant effects were observed | – | –

Source: patent US10813944B2, “Cyclodextrins as procoagulants” (STICHTING SANQUIN BLOEDVOORZIENING, priority 2016, dated 2020)
